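Grown in 96-well plates, cells were treated for 48 hours with each compound at five concentrations. Insufficient inhibition: endpoint recorded as highest concentration tested. Abbreviation: GI50, concentration required for 50% inhibition of growth.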 Activity calls are given as the source filed them. No stated cut-off is given here; in the data, active = GI50 up to about 1.1 µM and inactive = higher.
How the values were obtained:
Test in all cases: NCI anticancer screen, dose series, 48 h
[1] = tested on: M19-MEL
[2] = tested on: OVCAR-8
[3] = tested on: SN12C
[4] = tested on: KM12
[5] = tested on: KM-20L2
[6] = tested on: HL-60
[7] = tested on: RPMI-8226
[8] = tested on: COLO 205
[9] = tested on: SNB-78
[10] = tested on: DLD-1
[11] = tested on: OVCAR-3
[12] = tested on: LOX IMVI
[13] = tested on: UO-31
[14] = tested on: IGROV-1
[15] = tested on: RXF 393
[16] = tested on: SW-620
[17] = tested on: HOP-62
[18] = tested on: SK-MEL-5
[19] = tested on: DMS-273
[20] = tested on: HOP-92
[21] = tested on: OVCAR-5
[22] = tested on: HCT-116
[23] = tested on: SK-OV-3
[24] = tested on: SNB-75
[25] = tested on: A498
[26] = tested on: UACC-257
[27] = tested on: U-251
[28] = tested on: MCF7
[29] = tested on: OVCAR-4
[30] = tested on: DMS-114
[31] = tested on: CCRF-CEM
[32] = tested on: NCI/ADR-RES
[33] = tested on: SF-295
[34] = tested on: A549
[35] = tested on: SF-539
[36] = tested on: UACC-62
[37] = tested on: NCI-H522
[38] = tested on: SF-268
[39] = tested on: HT-29
[40] = tested on: SK-MEL-2
[41] = tested on: HCC 2998
[42] = tested on: SNB-19
[43] = tested on: SK-MEL-28
[44] = tested on: Malme-3M
[45] = tested on: CAKI-1
[46] = tested on: NCI-H226
[47] = tested on: HOP-18
[48] = tested on: NCI-H460
[49] = tested on: HCT-15
[50] = tested on: EKVX
[51] = tested on: K562
[52] = tested on: NCI-H23
[53] = tested on: MOLT-4
[54] = tested on: XF498
[55] = tested on: ACHN
[56] = tested on: M14
[57] = tested on: 786-0
[58] = tested on: LXFL 529

Q: `S=c1sc2c(s1)SC(c1ccccc1)CS2` (stereo not drawn) was tested. Which GI50 [1] did it give?
A: > 100 µM (inactive)

Q: What about the GI50 [2] of the same molecule?
A: > 100 µM (inactive)

Q: And the GI50 [3]?
A: > 100 µM (inactive)

Q: And the GI50 [4]?
A: > 100 µM (inactive)

Q: And the GI50 [5]?
A: > 100 µM (inactive)

Q: And the GI50 [6]?
A: > 51.3 µM (inactive)

Q: And the GI50 [7]?
A: > 100 µM (inactive)

Q: And the GI50 [8]?
A: > 100 µM (inactive)

Q: And the GI50 [9]?
A: > 100 µM (inactive)

Q: And the GI50 [10]?
A: > 100 µM (inactive)

Q: And the GI50 [11]?
A: > 66.2 µM (inactive)

Q: What about the GI50 [12] of the same molecule?
A: > 86.3 µM (inactive)

Q: What about the GI50 [13] of the same molecule?
A: > 100 µM (inactive)

Q: And the GI50 [14]?
A: > 100 µM (inactive)

Q: What about the GI50 [15] of the same molecule?
A: 25.1 µM (inactive)

Q: What about the GI50 [16] of the same molecule?
A: > 100 µM (inactive)

Q: What about the GI50 [17] of the same molecule?
A: > 90.8 µM (inactive)

Q: And the GI50 [18]?
A: > 100 µM (inactive)

Q: And the GI50 [19]?
A: > 100 µM (inactive)

Q: What about the GI50 [20] of the same molecule?
A: > 64.4 µM (inactive)

Q: And the GI50 [21]?
A: > 100 µM (inactive)

Q: And the GI50 [22]?
A: > 100 µM (inactive)

Q: And the GI50 [23]?
A: > 100 µM (inactive)

Q: What about the GI50 [24] of the same molecule?
A: > 45 µM (inactive)

Q: What about the GI50 [25] of the same molecule?
A: > 100 µM (inactive)

Q: What about the GI50 [26] of the same molecule?
A: > 21.7 µM (inactive)

Q: And the GI50 [27]?
A: > 100 µM (inactive)

Q: What about the GI50 [28] of the same molecule?
A: > 100 µM (inactive)

Q: And the GI50 [29]?
A: 20.4 µM (inactive)

Q: And the GI50 [30]?
A: > 47.9 µM (inactive)

Q: What about the GI50 [31] of the same molecule?
A: > 100 µM (inactive)

Q: What about the GI50 [32] of the same molecule?
A: > 52 µM (inactive)

Q: What about the GI50 [33] of the same molecule?
A: 25.8 µM (inactive)

Q: What about the GI50 [34] of the same molecule?
A: > 100 µM (inactive)

Q: What about the GI50 [35] of the same molecule?
A: > 100 µM (inactive)

Q: What about the GI50 [36] of the same molecule?
A: > 100 µM (inactive)

Q: What about the GI50 [37] of the same molecule?
A: > 100 µM (inactive)

Q: And the GI50 [38]?
A: > 100 µM (inactive)

Q: What about the GI50 [39] of the same molecule?
A: > 100 µM (inactive)

Q: What about the GI50 [40] of the same molecule?
A: > 100 µM (inactive)

Q: And the GI50 [41]?
A: > 85.1 µM (inactive)

Q: And the GI50 [42]?
A: > 100 µM (inactive)

Q: And the GI50 [43]?
A: > 100 µM (inactive)

Q: And the GI50 [44]?
A: > 100 µM (inactive)

Q: What about the GI50 [45] of the same molecule?
A: 1 µM (active)

Q: And the GI50 [46]?
A: > 100 µM (inactive)

Q: And the GI50 [47]?
A: > 100 µM (inactive)

Q: And the GI50 [48]?
A: > 100 µM (inactive)

Q: What about the GI50 [49] of the same molecule?
A: > 100 µM

Q: What about the GI50 [50] of the same molecule?
A: > 100 µM (inactive)

Q: What about the GI50 [51] of the same molecule?
A: > 100 µM (inactive)

Q: What about the GI50 [52] of the same molecule?
A: > 100 µM (inactive)

Q: What about the GI50 [53] of the same molecule?
A: > 100 µM (inactive)

Q: Which GI50 [2] does the source give for `Cc1cc(N(CCC#N)S(=O)(=O)c2ccccc2)ccc1/C=C1\N=C(c2ccc(Cl)cc2)OC1=O` here?
A: > 100 µM (inactive)

Q: What about the GI50 [3] of the same molecule?
A: > 100 µM (inactive)

Q: What about the GI50 [54] of the same molecule?
A: > 100 µM (inactive)

Q: What about the GI50 [4] of the same molecule?
A: > 100 µM (inactive)

Q: What about the GI50 [5] of the same molecule?
A: > 100 µM (inactive)

Q: What about the GI50 [6] of the same molecule?
A: > 100 µM (inactive)

Q: And the GI50 [7]?
A: > 100 µM (inactive)

Q: And the GI50 [8]?
A: > 100 µM (inactive)

Q: And the GI50 [9]?
A: > 100 µM (inactive)

Q: And the GI50 [10]?
A: > 100 µM (inactive)

Q: And the GI50 [11]?
A: > 100 µM (inactive)

Q: And the GI50 [12]?
A: > 100 µM (inactive)

Q: What about the GI50 [13] of the same molecule?
A: > 100 µM (inactive)

Q: And the GI50 [14]?
A: > 100 µM (inactive)

Q: And the GI50 [15]?
A: > 100 µM (inactive)

Q: What about the GI50 [16] of the same molecule?
A: > 100 µM (inactive)

Q: What about the GI50 [18] of the same molecule?
A: > 100 µM (inactive)

Q: What about the GI50 [19] of the same molecule?
A: > 100 µM (inactive)

Q: And the GI50 [20]?
A: > 100 µM (inactive)

Q: And the GI50 [55]?
A: > 100 µM (inactive)

Q: And the GI50 [21]?
A: > 100 µM (inactive)

Q: What about the GI50 [22] of the same molecule?
A: > 100 µM (inactive)

Q: What about the GI50 [25] of the same molecule?
A: > 100 µM (inactive)

Q: And the GI50 [26]?
A: > 100 µM (inactive)

Q: What about the GI50 [27] of the same molecule?
A: 54 µM (inactive)

Q: And the GI50 [56]?
A: > 100 µM (inactive)

Q: What about the GI50 [29] of the same molecule?
A: > 100 µM (inactive)

Q: And the GI50 [30]?
A: > 100 µM (inactive)

Q: And the GI50 [57]?
A: > 100 µM (inactive)

Q: What about the GI50 [31] of the same molecule?
A: 55.5 µM (inactive)

Q: And the GI50 [33]?
A: > 100 µM (inactive)

Q: And the GI50 [34]?
A: > 100 µM (inactive)

Q: And the GI50 [35]?
A: > 100 µM (inactive)

Q: What about the GI50 [36] of the same molecule?
A: > 100 µM (inactive)

Q: What about the GI50 [38] of the same molecule?
A: > 100 µM (inactive)

Q: What about the GI50 [39] of the same molecule?
A: > 100 µM (inactive)

Q: And the GI50 [40]?
A: > 100 µM (inactive)

Q: And the GI50 [41]?
A: > 100 µM (inactive)

Q: What about the GI50 [42] of the same molecule?
A: > 100 µM (inactive)

Q: And the GI50 [58]?
A: > 100 µM (inactive)

Q: And the GI50 [43]?
A: > 100 µM (inactive)

Q: And the GI50 [44]?
A: > 100 µM (inactive)

Q: And the GI50 [45]?
A: > 100 µM (inactive)

Q: What about the GI50 [46] of the same molecule?
A: 38.1 µM (inactive)

Q: What about the GI50 [48] of the same molecule?
A: > 100 µM (inactive)

Q: And the GI50 [49]?
A: > 100 µM

Q: And the GI50 [50]?
A: > 100 µM (inactive)

Q: What about the GI50 [51] of the same molecule?
A: > 100 µM (inactive)

Q: What about the GI50 [52] of the same molecule?
A: > 100 µM (inactive)

Q: What about the GI50 [53] of the same molecule?
A: > 100 µM (inactive)
